# Results: ChEMBL document CHEMBL4138043, “Quinoides and VEGFR2 TKIs influence the fate of hepatocellular carcinoma and its cancer stem cells” (Medchemcomm, 2017)
# pIC50: −log10 of the molar value.
# Tests used:
# [1] = tested on: Huh-7; assay: Cytotoxicity against human HuH7 cells assessed as growth inhibition after 72 hrs by SRB assay; type: functional, cell-based; conditions: for pIC50: Homo sapiens, Huh-7, 72 h, read-out: IC50
# [2] = tested on: Hep 3B2; assay: Cytotoxicity against human Hep3B cells assessed as growth inhibition after 72 hrs by SRB assay; type: functional, cell-based; conditions: for pIC50: Homo sapiens, Hep3B, 72 h, read-out: IC50
# [3] = tested on: Huh-7; assay: Disruption of cancer stem cell subpopulation of human HuH7 cells assessed as effect on CD133 levels at IC100 after 72 hrs by flow cytometric method (reference value: 0 to 0.6%); type: functional
# [4] = tested on: Huh-7; assay: Disruption of cancer stem cell subpopulation of human HuH7 cells assessed as effect on EpCAM levels at IC100 after 72 hrs by flow cytometric method (reference value: 13.7 to 33%); type: functional
# [5] = tested on: Mahlavu; assay: Cytotoxicity against human Mahlavu cells assessed as growth inhibition after 72 hrs by SRB assay; type: functional, cell-based; conditions: for pIC50: Homo sapiens, Mahlavu, 72 h, read-out: IC50
# [6] = tested on: SNU-475; assay: Disruption of cancer stem cell subpopulation of human SNU475 cells assessed as effect on CD90 levels at IC100 after 72 hrs by flow cytometric method (reference value: 0.2%); type: functional
# [7] = tested on: SNU-475; assay: Cytotoxicity against human SNU475 cells assessed as growth inhibition after 72 hrs by SRB assay; type: functional, cell-based; conditions: for pIC50: Homo sapiens, SNU-475, 72 h, read-out: IC50
# [8] = tested on: Hep 3B2; assay: Disruption of cancer stem cell subpopulation of human Hep3B cells assessed as aggressiveness factor at IC100 after 72 hrs by flow cytometric method; type: functional
# [9] = tested on: Huh-7; assay: Disruption of cancer stem cell subpopulation of human HuH7 cells assessed as aggressiveness factor at IC100 after 72 hrs by flow cytometric method; type: functional
# [10] = tested on: Hep 3B2; assay: Disruption of cancer stem cell subpopulation of human Hep3B cells assessed as effect on CD133 levels at IC100 after 72 hrs by flow cytometric method (reference value: 0 to 0.6%); type: functional
# [11] = tested on: Mahlavu; assay: Disruption of cancer stem cell subpopulation of human Mahlavu cells assessed as aggressiveness factor at IC100 after 72 hrs by flow cytometric method; type: functional
# [12] = tested on: Hep 3B2; assay: Disruption of cancer stem cell subpopulation of human Hep3B cells assessed as effect on EpCAM levels at IC100 after 72 hrs by flow cytometric method (reference value: 0 to 0.6%); type: functional
# [13] = tested on: Mahlavu; assay: Disruption of cancer stem cell subpopulation of human Mahlavu cells assessed as effect on CD90 levels at IC100 after 72 hrs by flow cytometric method (reference value: 0.6%); type: functional
# [14] = tested on: SNU-475; assay: Disruption of cancer stem cell subpopulation of human SNU475 cells assessed as aggressiveness factor at IC100 after 72 hrs by flow cytometric method; type: functional
# [15] = biological target: Vascular endothelial growth factor receptor 2 (Homo sapiens, UniProt P35968); assay: Inhibition of N-terminal GST-fused human VEGFR2 C-terminal fragment expressed in Sf9 insect cells using poly(Glu:Tyr) 4:1 as substrate; type: cell-based
# [16] = biological target: Focal adhesion kinase 1 (Homo sapiens) (UniProt Q05397); assay: Inhibition of FAK phosphorylation at Y397 in human bone marrow mesenchymal stem cells at 5 uM after 1 hr by immunoblot method relative to control
# [17] = biological target: Focal adhesion kinase 1 (Homo sapiens) (UniProt Q05397); assay: Inhibition of FAK phosphorylation at Y397 in human bone marrow mesenchymal stem cells at 1 uM after 1 hr by immunoblot method relative to control
# Sequence of Focal adhesion kinase 1 (Homo sapiens) (Q05397 2-1052 limits assumed): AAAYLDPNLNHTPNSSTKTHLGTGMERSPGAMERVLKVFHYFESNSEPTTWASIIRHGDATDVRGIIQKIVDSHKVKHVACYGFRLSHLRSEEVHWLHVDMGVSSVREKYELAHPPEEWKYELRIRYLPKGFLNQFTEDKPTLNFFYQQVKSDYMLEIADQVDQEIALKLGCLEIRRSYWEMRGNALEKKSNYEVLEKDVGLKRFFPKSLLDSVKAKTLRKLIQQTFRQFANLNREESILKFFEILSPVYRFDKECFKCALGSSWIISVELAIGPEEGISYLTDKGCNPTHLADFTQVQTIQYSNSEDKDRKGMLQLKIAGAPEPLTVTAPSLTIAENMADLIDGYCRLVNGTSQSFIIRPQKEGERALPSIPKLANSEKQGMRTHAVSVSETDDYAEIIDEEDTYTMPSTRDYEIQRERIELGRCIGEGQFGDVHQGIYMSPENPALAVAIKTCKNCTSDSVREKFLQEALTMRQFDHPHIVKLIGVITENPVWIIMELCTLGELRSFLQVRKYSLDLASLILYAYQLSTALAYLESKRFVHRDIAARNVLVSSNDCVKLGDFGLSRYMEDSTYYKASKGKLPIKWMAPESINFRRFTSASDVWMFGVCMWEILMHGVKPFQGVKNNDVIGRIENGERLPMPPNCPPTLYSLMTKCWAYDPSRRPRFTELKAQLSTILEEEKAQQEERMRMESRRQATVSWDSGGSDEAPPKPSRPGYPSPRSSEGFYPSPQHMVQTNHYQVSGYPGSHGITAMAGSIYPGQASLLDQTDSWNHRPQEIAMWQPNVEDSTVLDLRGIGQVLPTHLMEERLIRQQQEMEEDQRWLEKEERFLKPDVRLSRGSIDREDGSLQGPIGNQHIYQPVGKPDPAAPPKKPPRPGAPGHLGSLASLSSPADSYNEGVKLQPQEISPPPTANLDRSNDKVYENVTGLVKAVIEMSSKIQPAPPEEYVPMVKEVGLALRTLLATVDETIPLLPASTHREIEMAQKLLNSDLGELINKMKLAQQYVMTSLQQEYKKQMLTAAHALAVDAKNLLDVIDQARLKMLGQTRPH
# Sequence of Vascular endothelial growth factor receptor 2 (P35968 whole entry, the tested form may be a part): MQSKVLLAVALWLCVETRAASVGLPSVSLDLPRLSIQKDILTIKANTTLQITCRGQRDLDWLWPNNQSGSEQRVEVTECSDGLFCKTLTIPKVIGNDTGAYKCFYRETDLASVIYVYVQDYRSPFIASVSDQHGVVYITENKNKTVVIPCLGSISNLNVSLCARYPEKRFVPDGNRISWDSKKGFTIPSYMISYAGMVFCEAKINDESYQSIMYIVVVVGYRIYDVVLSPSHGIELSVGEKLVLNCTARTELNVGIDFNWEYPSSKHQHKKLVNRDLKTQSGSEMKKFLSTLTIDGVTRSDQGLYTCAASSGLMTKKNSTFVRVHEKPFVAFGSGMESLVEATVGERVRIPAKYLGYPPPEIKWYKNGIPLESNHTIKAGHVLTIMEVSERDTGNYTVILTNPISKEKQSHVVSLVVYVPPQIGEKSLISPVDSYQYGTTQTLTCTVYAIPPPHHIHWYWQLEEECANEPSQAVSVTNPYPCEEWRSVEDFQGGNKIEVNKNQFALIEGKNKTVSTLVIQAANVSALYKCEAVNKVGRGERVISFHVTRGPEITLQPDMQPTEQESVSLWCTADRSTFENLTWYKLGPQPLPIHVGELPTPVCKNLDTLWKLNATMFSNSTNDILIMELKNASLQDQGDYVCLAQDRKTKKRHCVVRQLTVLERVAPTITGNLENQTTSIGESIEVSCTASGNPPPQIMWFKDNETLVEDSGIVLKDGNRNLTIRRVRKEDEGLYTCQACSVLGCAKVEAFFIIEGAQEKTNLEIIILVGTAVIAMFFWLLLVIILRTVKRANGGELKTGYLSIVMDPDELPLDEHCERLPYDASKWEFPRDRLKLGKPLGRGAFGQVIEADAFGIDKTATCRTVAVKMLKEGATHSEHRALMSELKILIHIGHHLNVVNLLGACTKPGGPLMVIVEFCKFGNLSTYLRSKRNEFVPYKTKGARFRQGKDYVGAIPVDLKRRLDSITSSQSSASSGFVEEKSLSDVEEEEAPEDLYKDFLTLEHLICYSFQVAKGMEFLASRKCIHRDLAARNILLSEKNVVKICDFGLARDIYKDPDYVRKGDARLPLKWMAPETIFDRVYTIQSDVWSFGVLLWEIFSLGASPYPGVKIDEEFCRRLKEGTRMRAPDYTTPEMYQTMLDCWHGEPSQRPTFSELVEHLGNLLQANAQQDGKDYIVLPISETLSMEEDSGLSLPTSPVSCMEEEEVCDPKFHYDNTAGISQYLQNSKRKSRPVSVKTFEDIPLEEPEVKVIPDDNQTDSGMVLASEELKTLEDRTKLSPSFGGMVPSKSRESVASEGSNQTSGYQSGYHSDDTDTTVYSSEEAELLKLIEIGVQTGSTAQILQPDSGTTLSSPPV
Compound,pIC50 [1],pIC50 [2],Activity [3],Activity [4],pIC50 [5],Activity [6],pIC50 [7],fold change (FC) [8],fold change (FC) [9],Activity [10],fold change (FC) [11],Activity [12],Activity [13],fold change (FC) [14],also measured
CNC(=O)c1cc(Oc2ccc(NC(=O)Nc3ccc(Cl)c(C(F)(F)F)c3)cc2)ccn1.Cc1ccc(S(=O)(=O)O)cc1 [SORAFENIB TOSYLATE],5.80,5.82,0.2%,31.8%,6.15,,,,,,,,,,
COC1=CC(=O)C(C)=C([S+]([O-])c2ccc(C)cc2)C1=O (racemic),5.26,5.37,0.8%,41.3%,4.94,0.4%,5.21,1.1,1.3,0%,2.2,84.9%,1.3%,2,
CCS(=O)(=O)c1ccc(OC)c(Nc2ncc(-c3cccc(-c4ccccn4)c3)o2)c1,5.82,6.15,0.1%,23.9%,5.92,,,1.7,1.7,,,,,,
CCS(=O)(=O)c1ccc(OC)c(Nc2nc(-c3cccc(-c4ccccn4)c3)co2)c1,6.40,6.05,0.1%,23.7%,5.96,,,2.6,1.7,,,,,,pIC50 [15]: 3.25
Cc1ccc([S@+]([O-])C2=CC(=O)C=CC2=O)cc1,4.70,4.76,0.2%,30.6%,4.50,0%,6.52,1.1,0.9,0%,0.3,81.4%,0.2%,0,
CCS(=O)(=O)c1ccc(OC)c(Nc2ncc(-c3cc(-c4ccccn4)cc(-c4ccccn4)c3)o2)c1,5.55,5.70,0.4%,31.6%,5.52,,,2.9,2.3,,,,,,
C[C@H](NC(=O)Cc1cc(F)cc(F)c1)C(=O)N[C@H](C(=O)OC(C)(C)C)c1ccccc1,5.30,5.30,,10.2 - 26.7%,5.30,0.1%,6.22,0.7,0.8,0%,0.2,68.8%,0.1%,0.5,
COC1=CC(=O)C([S@@+]([O-])c2ccc(C)cc2)=CC1=O,4.97,5.00,0.3%,29.1%,4.95,0.4%,5.05,1.1,0.9,0%,2.3,84.7%,1.4%,2,
COC1=CC(=O)C(C)=C([S@@+]([O-])c2ccc(C)cc2)C1=O,5.10,5.26,0.5%,35.8%,4.84,0.1%,4.98,1.1,1.1,0%,1.3,87.8%,0.8%,0.5,
CCOC1=CC(=O)C(C)=C([S@@+]([O-])c2ccc(C)cc2)C1=O,5.15,4.92,0.3%,40.6%,4.74,0.1%,5.26,1,1.2,0%,1.7,80.1%,1%,0.5,
Cc1ccc([S@+]([O-])C2=C(Cl)C(=O)C=CC2=O)cc1,,,0.2%,24.7%,,0.3%,,1,0.7,0%,0.8,76%,0.5%,1.5,IC50 ([7]; snu-475): Not Active; IC50 ([1]; huh-7): Not Active; IC50 ([2]; hep 3b2): Not Active; IC50 ([5]; mahlavu): Not Active
CCS(=O)(=O)c1ccc(OC)c(Nc2ncc(-c3cccc(-c4cc[nH]c4)c3)o2)c1,5.77,5.68,0.9%,32.1%,6.10,,,2.1,2.3,,,,,,pIC50 [15]: 7.74
CO[C@H]1[C@@H](OC)C[C@H](C)[C@@H](OC)C2=CC(=O)C=C(NC(=O)/C(C)=C/C=C\[C@H](OC)[C@@H](OC(N)=O)/C(C)=C/[C@@H]1C)C2=O,,,,,,,,,,,,,,,inhibition [16]: 78%; inhibition [17]: 61%
